Measured values reported in ChEMBL document CHEMBL5055685, “Discovery of the First Potent IDO1/IDO2 Dual Inhibitors: A Promising Strategy for Cancer Immunotherapy” (J Med Chem, 2021).
Active and inactive are the calls of the source.

What was measured:
[1] = Volume of distribution at steady state in Sprague-Dawley rat at 5 mg/kg, iv; type: ADME, organism-based; conditions: in vivo, read-out: Vdss
[2] = Clearance in Sprague-Dawley rat at 5 mg/kg, iv; type: ADME, organism-based; conditions: in vivo
[3] = Clearance in rat liver microsomes; type: ADME, Microsome; conditions: read-out: CLH
[4] = Apparent permeability across basolateral to apical side in human Caco-2 cells assessed as drug recovery; type: ADME, cell-based; conditions: read-out: Drug recovery
[5] = Apparent permeability across apical to basolateral side in human Caco-2 cells; type: ADME, cell-based
[6] = Protein binding in human plasma by equilibrium dialysis; type: ADME, cell-free; conditions: read-out: PPB (converted)
[7] = system: Rattus norvegicus; assay: Toxicity in rat assessed as rat death at […]; type: organism-based; conditions: in vivo
[8] = system: CT26; assay: Antitumor activity against mouse CT26 cells implanted in BALB/c mouse assessed as tumor growth inhibition at 50 mg/kg, ip bid for 28 days by vernier caliper method relative to control; type: functional; conditions: CT26, 672 h, time 28 day, read-out: TGI
[9] = system: Mus musculus; assay: Toxicity in BALB/c mouse implanted with mouse CT26 cells assessed as weight loss at 50 mg/kg, ip bid for 28 days; type: organism-based; conditions: in vivo, 672 h, time 28 day
[10] = system: HCT-116; assay: Antitumor immunity in BALB/c mouse xenografted with human HCT-116 cells assessed as increase in TNFalpha in serum by […]; type: functional, cell-based
[11] = system: HCT-116; assay: Antitumor immunity in BALB/c mouse xenografted with human HCT-116 cells assessed as live Treg cells in spleen by propidium iodide staining based flow cytometry analysis (reference value: 70.9 %); type: functional
[12] = molecular target: Aurora kinase B (Homo sapiens) (UniProt Q96GD4); assay: Inhibition of Aurora B (unknown origin) at 1 uM
[13] = molecular target: Serine/threonine-protein kinase B-raf (Homo sapiens) (UniProt P15056); assay: Inhibition of BRAF (unknown origin) at 1 uM
[14] = molecular target: Calcium/calmodulin-dependent protein kinase kinase 2 (Homo sapiens) (UniProt Q96RR4); assay: Inhibition of CAMKK2 (unknown origin) at 1 uM
[15] = molecular target: CDK17/Cyclin-Y (Homo sapiens) (UniProt Q00537+Q8ND76); assay: Inhibition of CDK17/cyclin-Y (unknown origin) at 1 uM; type: protein-complex assay
[16] = molecular target: Casein kinase I isoform epsilon (Homo sapiens) (UniProt P49674); assay: Inhibition of CK1E (unknown origin) at 1 uM
[17] = molecular target: Casein kinase I isoform gamma-2 (Homo sapiens) (UniProt P78368); assay: Inhibition of CK1gamma2 (unknown origin) at 1 uM
[18] = molecular target: Dual specificity protein kinase CLK1 (Homo sapiens) (UniProt P49759); assay: Inhibition of CLK1 (unknown origin) at 1 uM
[19] = molecular target: Dual specificity protein kinase CLK4 (Homo sapiens) (UniProt Q9HAZ1); assay: Inhibition of CLK4 (unknown origin) at 1 uM
[20] = molecular target: Serine/threonine-protein kinase 17A (Homo sapiens) (UniProt Q9UEE5); assay: Inhibition of DRAK1 (unknown origin) at 1 uM
[21] = molecular target: Ephrin type-A receptor 1 (Homo sapiens) (UniProt P21709); assay: Inhibition of EPHA1 (unknown origin) at 1 uM
[22] = molecular target: Fibroblast growth factor receptor 3 (Homo sapiens) (UniProt P22607); assay: Inhibition of FGFR3 (unknown origin) at 1 uM
[23] = molecular target: Beta-adrenergic receptor kinase 1 (Homo sapiens) (UniProt P25098); assay: Inhibition of GRK2 (unknown origin) at 1 uM
[24] = molecular target: Inhibitor of nuclear factor kappa-B kinase subunit alpha (Homo sapiens) (UniProt O15111); assay: Inhibition of IKKalpha (unknown origin) at 1 uM
[25] = molecular target: Insulin receptor-related protein (Homo sapiens) (UniProt P14616); assay: Inhibition of IRR (unknown origin) at 1 uM
[26] = molecular target: Mitogen-activated protein kinase 8 (Homo sapiens) (UniProt P45983); assay: Inhibition of JNK1 (unknown origin) at 1 uM
[27] = molecular target: Serine/threonine-protein kinase LATS2 (Homo sapiens) (UniProt Q9NRM7); assay: Inhibition of LATS2 (unknown origin) at 1 uM
[28] = molecular target: Mitogen-activated protein kinase kinase kinase 3 (Homo sapiens) (UniProt Q99759); assay: Inhibition of MEKK3 (unknown origin) at 1 uM
[29] = molecular target: Serine/threonine-protein kinase MRCK beta (Homo sapiens) (UniProt Q9Y5S2); assay: Inhibition of MRCKbeta (unknown origin) at 1 uM
[30] = molecular target: Serine/threonine-protein kinase 26 (Homo sapiens) (UniProt Q9P289); assay: Inhibition of MST4 (unknown origin) at 1 uM
[31] = molecular target: Mitogen-activated protein kinase 11 (Homo sapiens) (UniProt Q15759); assay: Inhibition of p38beta (unknown origin) at 1 uM
[32] = molecular target: Ribosomal protein S6 kinase beta-2 (Homo sapiens) (UniProt Q9UBS0); assay: Inhibition of p70S6Kb (unknown origin) at 1 uM
[33] = molecular target: Platelet-derived growth factor receptor alpha (Homo sapiens) (UniProt P16234); assay: Inhibition of PDGFRalpha (unknown origin) at 1 uM
[34] = molecular target: Serine/threonine-protein kinase pim-3 (Homo sapiens) (UniProt Q86V86); assay: Inhibition of PIM3 (unknown origin) at 1 uM
[35] = molecular target: Protein kinase C alpha type (Homo sapiens) (UniProt P17252); assay: Inhibition of PKCalpha (unknown origin)at 1 uM
[36] = molecular target: cGMP-dependent protein kinase 1 (Homo sapiens) (UniProt Q13976); assay: Inhibition of PKG1alpha (unknown origin) at 1 uM
[37] = molecular target: Serine/threonine-protein kinase SIK1 (Homo sapiens) (UniProt P57059); assay: Inhibition of SIK1 (unknown origin) at 1 uM
[38] = molecular target: Tyrosine-protein kinase Srms (Homo sapiens) (UniProt Q9H3Y6); assay: Inhibition of SRMS (unknown origin) at 1 uM
[39] = molecular target: TGF-beta receptor type-2 (Homo sapiens) (UniProt P37173); assay: Inhibition of TGFBR2 (unknown origin) at 1 uM
[40] = molecular target: Serine/threonine-protein kinase tousled-like 1 (Homo sapiens) (UniProt Q9UKI8); assay: Inhibition of TLK1 (unknown origin) at 1 uM
[41] = molecular target: NT-3 growth factor receptor (Homo sapiens) (UniProt Q16288); assay: Inhibition of TRKC (unknown origin) at 1 uM
[42] = molecular target: Tau-tubulin kinase 1 (Homo sapiens) (UniProt Q5TCY1); assay: Inhibition of TTBK1 (unknown origin) at 1 uM
[43] = molecular target: Non-receptor tyrosine-protein kinase TYK2 (Homo sapiens) (UniProt P29597); assay: Inhibition of TYK2 (unknown origin) at 1 uM
[44] = molecular target: Tyrosine-protein kinase receptor TYRO3 (Homo sapiens) (UniProt Q06418); assay: Inhibition of TYRO3 (unknown origin) at 1 uM
[45] = molecular target: Serine/threonine-protein kinase ULK1 (Homo sapiens) (UniProt O75385); assay: Inhibition of ULK1 (unknown origin) at 1 uM

Serine/threonine-protein kinase MRCK beta (Homo sapiens), sequence (Q9Y5S2 whole entry): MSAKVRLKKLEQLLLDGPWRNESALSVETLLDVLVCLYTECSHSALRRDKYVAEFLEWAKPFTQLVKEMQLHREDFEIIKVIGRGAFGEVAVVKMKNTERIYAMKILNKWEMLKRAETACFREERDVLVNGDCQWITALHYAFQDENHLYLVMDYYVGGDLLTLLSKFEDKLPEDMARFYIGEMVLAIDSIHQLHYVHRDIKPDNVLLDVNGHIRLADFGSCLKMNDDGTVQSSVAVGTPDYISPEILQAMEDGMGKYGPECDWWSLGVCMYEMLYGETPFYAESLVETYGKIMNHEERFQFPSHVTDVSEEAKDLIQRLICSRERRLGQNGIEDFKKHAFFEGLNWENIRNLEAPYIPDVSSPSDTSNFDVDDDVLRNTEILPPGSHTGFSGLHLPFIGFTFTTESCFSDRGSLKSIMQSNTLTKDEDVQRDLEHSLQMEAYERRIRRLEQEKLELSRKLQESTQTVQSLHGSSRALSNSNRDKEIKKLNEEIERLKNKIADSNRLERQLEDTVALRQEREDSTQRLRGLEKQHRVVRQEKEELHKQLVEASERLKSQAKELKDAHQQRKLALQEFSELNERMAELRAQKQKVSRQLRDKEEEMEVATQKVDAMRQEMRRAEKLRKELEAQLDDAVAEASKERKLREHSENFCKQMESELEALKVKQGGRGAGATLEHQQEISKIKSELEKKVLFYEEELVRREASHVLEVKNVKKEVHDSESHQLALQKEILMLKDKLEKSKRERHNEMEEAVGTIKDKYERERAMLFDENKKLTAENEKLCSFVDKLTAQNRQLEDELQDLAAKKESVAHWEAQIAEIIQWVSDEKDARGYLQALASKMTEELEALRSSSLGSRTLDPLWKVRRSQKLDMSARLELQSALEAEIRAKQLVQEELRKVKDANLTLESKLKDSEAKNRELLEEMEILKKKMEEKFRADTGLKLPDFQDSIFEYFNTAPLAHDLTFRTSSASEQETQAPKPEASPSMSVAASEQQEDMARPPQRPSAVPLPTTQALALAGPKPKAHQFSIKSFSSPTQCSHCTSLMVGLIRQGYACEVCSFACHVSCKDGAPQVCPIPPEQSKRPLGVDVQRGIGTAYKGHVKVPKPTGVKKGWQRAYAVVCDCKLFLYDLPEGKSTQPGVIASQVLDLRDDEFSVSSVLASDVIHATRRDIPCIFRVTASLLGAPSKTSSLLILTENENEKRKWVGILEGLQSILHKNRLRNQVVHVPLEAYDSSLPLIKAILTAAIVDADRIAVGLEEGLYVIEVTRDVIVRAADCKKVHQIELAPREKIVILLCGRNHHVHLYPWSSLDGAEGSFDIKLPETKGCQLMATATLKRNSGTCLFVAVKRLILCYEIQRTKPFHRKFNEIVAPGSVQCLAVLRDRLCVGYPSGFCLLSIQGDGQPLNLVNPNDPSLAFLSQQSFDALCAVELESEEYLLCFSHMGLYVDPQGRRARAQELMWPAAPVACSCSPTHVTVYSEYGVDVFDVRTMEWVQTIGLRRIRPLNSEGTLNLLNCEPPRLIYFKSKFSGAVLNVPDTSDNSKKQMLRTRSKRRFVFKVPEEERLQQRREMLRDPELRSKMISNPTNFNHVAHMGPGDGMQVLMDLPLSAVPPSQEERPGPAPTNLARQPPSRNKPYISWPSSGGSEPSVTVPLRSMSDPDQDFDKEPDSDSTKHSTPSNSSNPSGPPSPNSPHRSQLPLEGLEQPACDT
Serine/threonine-protein kinase SIK1 (Homo sapiens), sequence (P57059 whole entry): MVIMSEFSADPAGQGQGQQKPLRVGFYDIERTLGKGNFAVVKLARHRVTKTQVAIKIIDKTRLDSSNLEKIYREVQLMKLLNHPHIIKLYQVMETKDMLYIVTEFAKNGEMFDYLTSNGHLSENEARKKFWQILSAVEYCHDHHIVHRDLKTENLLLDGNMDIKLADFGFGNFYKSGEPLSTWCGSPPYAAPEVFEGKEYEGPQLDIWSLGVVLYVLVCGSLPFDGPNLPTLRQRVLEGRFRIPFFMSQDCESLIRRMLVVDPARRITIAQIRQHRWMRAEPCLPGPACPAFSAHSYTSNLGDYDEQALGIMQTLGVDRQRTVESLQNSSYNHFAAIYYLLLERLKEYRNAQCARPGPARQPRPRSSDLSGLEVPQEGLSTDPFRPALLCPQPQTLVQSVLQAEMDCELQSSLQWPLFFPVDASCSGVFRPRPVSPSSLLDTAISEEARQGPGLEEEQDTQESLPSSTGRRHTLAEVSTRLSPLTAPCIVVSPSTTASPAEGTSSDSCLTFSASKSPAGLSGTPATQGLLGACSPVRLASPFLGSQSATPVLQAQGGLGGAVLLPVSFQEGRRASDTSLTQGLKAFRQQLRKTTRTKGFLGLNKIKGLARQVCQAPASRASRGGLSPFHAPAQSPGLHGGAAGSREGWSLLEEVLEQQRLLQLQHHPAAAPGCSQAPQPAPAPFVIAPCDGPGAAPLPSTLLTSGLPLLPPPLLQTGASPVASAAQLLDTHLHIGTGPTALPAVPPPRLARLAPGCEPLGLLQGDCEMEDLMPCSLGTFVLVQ
Dual specificity protein kinase CLK1 (Homo sapiens), sequence (P49759 whole entry, looked up): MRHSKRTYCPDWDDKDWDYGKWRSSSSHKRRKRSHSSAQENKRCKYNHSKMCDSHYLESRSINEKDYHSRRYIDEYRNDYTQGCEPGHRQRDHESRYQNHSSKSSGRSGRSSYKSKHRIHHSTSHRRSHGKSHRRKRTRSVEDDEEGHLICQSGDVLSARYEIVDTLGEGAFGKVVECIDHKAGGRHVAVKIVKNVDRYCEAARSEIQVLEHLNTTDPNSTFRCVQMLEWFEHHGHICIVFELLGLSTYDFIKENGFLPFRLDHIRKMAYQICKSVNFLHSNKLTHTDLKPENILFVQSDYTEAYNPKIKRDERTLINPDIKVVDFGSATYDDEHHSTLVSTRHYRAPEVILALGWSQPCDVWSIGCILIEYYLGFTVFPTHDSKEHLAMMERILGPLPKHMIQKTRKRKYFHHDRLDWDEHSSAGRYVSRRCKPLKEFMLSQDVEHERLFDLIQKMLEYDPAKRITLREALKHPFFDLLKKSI
Serine/threonine-protein kinase LATS2 (Homo sapiens), sequence (Q9NRM7 whole entry): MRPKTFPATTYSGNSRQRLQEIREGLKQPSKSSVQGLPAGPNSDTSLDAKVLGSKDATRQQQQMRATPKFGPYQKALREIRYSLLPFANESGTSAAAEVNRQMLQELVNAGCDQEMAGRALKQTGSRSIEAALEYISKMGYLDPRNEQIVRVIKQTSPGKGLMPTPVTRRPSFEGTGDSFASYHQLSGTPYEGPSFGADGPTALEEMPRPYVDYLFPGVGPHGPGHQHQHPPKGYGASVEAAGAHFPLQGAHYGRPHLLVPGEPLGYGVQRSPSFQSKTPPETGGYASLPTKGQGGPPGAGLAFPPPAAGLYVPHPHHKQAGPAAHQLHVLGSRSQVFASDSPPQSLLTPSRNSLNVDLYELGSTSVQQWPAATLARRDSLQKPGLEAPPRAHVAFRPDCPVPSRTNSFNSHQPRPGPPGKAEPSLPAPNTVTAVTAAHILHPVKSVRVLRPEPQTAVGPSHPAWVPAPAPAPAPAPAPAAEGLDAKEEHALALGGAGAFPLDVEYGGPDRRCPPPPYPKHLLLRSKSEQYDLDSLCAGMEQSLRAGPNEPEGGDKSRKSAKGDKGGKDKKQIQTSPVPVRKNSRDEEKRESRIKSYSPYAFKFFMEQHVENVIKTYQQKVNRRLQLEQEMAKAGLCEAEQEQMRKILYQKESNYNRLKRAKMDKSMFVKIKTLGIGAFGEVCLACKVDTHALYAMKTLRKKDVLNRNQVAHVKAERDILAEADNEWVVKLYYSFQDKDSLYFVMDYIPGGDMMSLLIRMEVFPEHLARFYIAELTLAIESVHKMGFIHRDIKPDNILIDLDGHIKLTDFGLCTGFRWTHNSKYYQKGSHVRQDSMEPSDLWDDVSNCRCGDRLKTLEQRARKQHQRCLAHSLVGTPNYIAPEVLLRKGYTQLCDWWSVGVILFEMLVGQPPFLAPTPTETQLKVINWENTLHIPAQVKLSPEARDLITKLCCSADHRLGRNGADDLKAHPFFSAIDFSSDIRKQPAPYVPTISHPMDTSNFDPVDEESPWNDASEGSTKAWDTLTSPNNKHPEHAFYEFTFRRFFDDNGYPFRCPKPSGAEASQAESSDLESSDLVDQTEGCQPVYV
Serine/threonine-protein kinase tousled-like 1 (Homo sapiens), sequence (Q9UKI8 whole entry): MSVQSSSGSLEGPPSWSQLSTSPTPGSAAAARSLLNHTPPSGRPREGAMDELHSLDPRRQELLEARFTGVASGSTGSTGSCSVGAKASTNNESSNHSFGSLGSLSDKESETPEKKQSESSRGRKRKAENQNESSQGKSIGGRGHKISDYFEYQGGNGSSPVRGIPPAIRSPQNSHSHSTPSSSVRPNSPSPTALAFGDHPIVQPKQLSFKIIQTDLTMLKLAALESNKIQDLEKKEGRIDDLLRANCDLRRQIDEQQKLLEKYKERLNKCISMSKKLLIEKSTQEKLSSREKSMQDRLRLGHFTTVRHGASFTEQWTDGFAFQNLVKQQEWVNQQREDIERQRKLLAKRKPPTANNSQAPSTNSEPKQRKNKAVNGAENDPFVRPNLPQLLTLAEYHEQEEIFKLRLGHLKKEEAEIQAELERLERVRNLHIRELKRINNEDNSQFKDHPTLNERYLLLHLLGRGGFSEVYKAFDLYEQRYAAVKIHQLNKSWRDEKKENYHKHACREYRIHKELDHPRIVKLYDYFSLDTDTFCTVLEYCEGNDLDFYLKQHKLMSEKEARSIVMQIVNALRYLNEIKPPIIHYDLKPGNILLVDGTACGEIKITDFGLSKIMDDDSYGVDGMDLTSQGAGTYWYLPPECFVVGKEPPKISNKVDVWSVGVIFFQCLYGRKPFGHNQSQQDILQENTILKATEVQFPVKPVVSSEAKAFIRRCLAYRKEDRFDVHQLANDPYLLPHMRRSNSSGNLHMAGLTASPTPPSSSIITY

OCCOCc1cn(CCNc2nonc2/C(=N/O)Nc2ccc(F)c(Br)c2)nn1
27.5 mL/min/kg: clearance [2]
69.7%: inhibition in vivo at 50 mg/kg [8]
inactive: inhibition [12] | inhibition [13] | inhibition [14] | inhibition [15] | inhibition [16] | inhibition [17] | inhibition [18] | inhibition [19] | inhibition [20] | inhibition [21] | inhibition [22] | inhibition [23] | inhibition [24] | inhibition [25] | inhibition [26] | inhibition [27] | inhibition [28] | inhibition [29] | inhibition [30] | inhibition [31] | inhibition [32] | inhibition [33] | inhibition [34] | inhibition [35] | inhibition [36] | inhibition [37] | inhibition [38] | inhibition [39] | inhibition [40] | inhibition [41] | inhibition [42] | inhibition [43] | inhibition [44] | inhibition [45]
0.88 L/kg: Vd [1]
112%: recovery [4]
87.4%: Activity [11]
65.3 µL/min/mg: microsomal CLint [3]
active: Activity [10]
Non-Toxic: Activity [7] | Activity [9]
0.0411: fraction unbound [6]
7.2 ×10⁻⁶ cm/s: Papp A→B [5]
